Laboratory results from patent US20190010158A1, “ANTITUMOR EFFECT POTENTIATOR COMPRISING PYRROLOPYRIMIDINE COMPOUND” (TAIHO PHARMACEUTICAL CO., LTD, priority 2015, published 2019).
Values joined by “and” are separate entries in the source; they are usually repeats but may differ in a detail not shown here. Equal values may be shown once. Read-outs that look alike come from different tables or passages of the source. Blank lines part the entries; values can stand above or below the compound they belong to.

Assays:
[1] = test system: tumor cell lines shown in Table 42; assay: Example 11: combined use with antimetabolite, cell growth inhibition test (IC50 ratio, CI); type: cell-based
[2] = test system: tumor cell lines shown in Table 26; assay: Example 3: combined use with serine-threonine kinase inhibitor, cell growth inhibition test (IC50 ratio, CI); settings: for Comprehensive Evaluation: combined use with Reference Example Compound 55
[3] = test system: human acute T lymphoblastic leukemia CCRF-CEM cell lines; assay: Cell growth inhibition 1 (CellTiter-Glo); type: cell-based; settings: culture with test compound 72 hours
[4] = TMD-8, IC50 of Reference Example Compound 55 : IC50 of other compound = 1:value
[5] = A431, IC50 of Reference Example Compound 55 : IC50 of other compound = 1:value
[6] = A431, combined use with Reference Example Compound 55
[7] = A549, IC50 of Reference Example Compound 55 : IC50 of other compound = 1:value

IC50 Ratio ([1]; MM.1S, IC50 of Reference Example Compound 55 : IC50 of other compound = 1:value): 169
Compound: Sc1ncnc2nc[nH]c12 [6-Mercaptopurine, 6-mercaptopurine]
CI ([1]; MM.1S, Reference Example Compound 55:other compound 1:100, at ED50): 0.61
CI ([1]; MM.1S, Reference Example Compound 55:other compound 1:300, at ED50): 0.80
Comprehensive Evaluation ([1]; MM.1S, combined use with Reference Example Compound 55): Moderate

IC50 Ratio [1]: 48
Compound: Nc1ccn([C@@H]2O[C@H](CO)[C@@H](O)[C@@H]2O)c(=O)n1 [Cytarabine, cytarabine]
CI [1]: 0.52 and 0.66
Comprehensive Evaluation ([1]; HCT116, combined use with Reference Example Compound 55): Synergism (0.3-0.7)

IC50 Ratio [2, 4]: 2
Compound: C[C@H](Nc1ncnc2nc[nH]c12)c1cc2cccc(Cl)c2c(=O)n1-c1ccccc1 [Duvelisib, duvelisib]
CI ([2]; TMD-8, Reference Example Compound 55:other compound 1:1.2, at ED50): 0.42
CI ([2]; TMD-8, Reference Example Compound 55:other compound 1:3.7, at ED50): 0.43
Comprehensive Evaluation ([2]; TMD-8): Synergism (0.3-0.7)

IC50 Ratio ([2]; VMRC-RCW, IC50 of Reference Example Compound 55 : IC50 of other compound = 1:value): 6
Compound: CO[C@H]1C[C@@H]2CC[C@@H](C)[C@@](O)(O2)C(=O)C(=O)N2CCCC[C@H]2C(=O)O[C@H]([C@H](C)C[C@@H]2CC[C@@H](OCCO)[C@H](OC)C2)CC(=O)[C@H](C)/C=C(\C)[C@@H](O)[C@@H](OC)C(=O)[C@H](C)C[C@H](C)/C=C/C=C/C=C/1C [Everolimus, everolimus]
Comprehensive Evaluation ([2]; VMRC-RCW): Synergism (0.3-0.7)

IC50 Ratio [1, 5]: 0.8
Compound: O=c1[nH]cc(F)c(=O)[nH]1 [Fluorouracil, fluorouracil]
CI ([1]; A431, Reference Example Compound 55:other compound 1:0.56, at ED50): 0.44
CI ([1]; A431, Reference Example Compound 55:other compound 1:1.67, at ED50): 0.20
Comprehensive Evaluation [1, 6]: Synergism (0.3-0.7)

IC50 Ratio [1, 5]: 0.01
Compound: Nc1ccn([C@@H]2O[C@H](CO)[C@@H](O)C2(F)F)c(=O)n1 [Gemcitabine, gemcitabine]
CI ([1]; A431, Reference Example Compound 55:other compound 1:0.007, at ED50): 0.70
CI ([1]; A431, Reference Example Compound 55:other compound 1:0.02, at ED50): 0.49
Comprehensive Evaluation [1, 6]: Synergism (0.3-0.7)

IC50 Ratio [2, 4]: 23
Compound: CC[C@H](Nc1ncnc2[nH]cnc12)c1nc2cccc(F)c2c(=O)n1-c1ccccc1 [Idelalisib, idelalisib]
CI ([2]; TMD-8, Reference Example Compound 55:other compound 1:11, at ED50): 0.57
CI ([2]; TMD-8, Reference Example Compound 55:other compound 1:33, at ED50): 0.64
Comprehensive Evaluation ([2]; TMD-8): Synergism (0.3-0.7)

IC50 Ratio [2, 7]: 5
Compound: NC1(c2ccc(-c3nc4ccn5c(=O)[nH]nc5c4cc3-c3ccccc3)cc2)CCC1 [MK2206]
CI ([2]; A549, Reference Example Compound 55:other compound 1:3, at ED50): 0.31
CI ([2]; A549, Reference Example Compound 55:other compound 1:9, at ED50): 0.35
Comprehensive Evaluation ([2]; A549): Synergism (0.3-0.7)

Compound: Nc1nc2[nH]cc(CCc3ccc(C(=O)N[C@@H](CCC(=O)O)C(=O)O)cc3)c2c(=O)[nH]1 [Pemetrexed, pemetrexed]
CI [1]: 0.73 and 0.55
Comprehensive Evaluation [1]: Moderate
IC50 Ratio [1]: 34

IC50 Ratio [2, 7]: 0.1
Compound: CO[C@H]1C[C@@H]2CC[C@@H](C)[C@@](O)(O2)C(=O)C(=O)N2CCCC[C@H]2C(=O)O[C@H]([C@H](C)C[C@@H]2CC[C@@H](O)[C@H](OC)C2)CC(=O)[C@H](C)/C=C(\C)[C@@H](O)[C@@H](OC)C(=O)[C@H](C)C[C@H](C)/C=C/C=C/C=C/1C [Rapamycin, rapamycin]
Comprehensive Evaluation ([2]; A549): Synergism (0.3-0.7)

IC50 [3]: 15 nM
Compound: CCS(=O)(=O)c1cc(N2CCCC2)cc(F)c1C#Cc1cn([C@@H]2O[C@H](CNS(N)(=O)=O)[C@@H](O)[C@H]2O)c2ncnc(N)c12 [Reference Example 70, 4-Amino-7-[(2R,3R,4S,5R)-3,4-dihydroxy-5-[(sulfamoylamino)methyl]tetrahydrofuran-2-yl]-5-[2-(2-ethylsulfonyl-6-fluoro-4-pyrrolidin-1-yl-phenyl)ethynyl]pyrrolo[2,3-d]pyrimidine]

IC50 [3]: 45 nM
Compound: COc1cncc(F)c1C#Cc1cn([C@@H]2O[C@H](CNS(N)(=O)=O)[C@@H](O)[C@H]2O)c2ncnc(N)c12 [Reference Example 71, 4-Amino-7-[(2R,3R,4S,5R)-3,4-dihydroxy-5-[(sulfamoylamino)methyl]tetrahydrofuran-2-yl]-5-[2-(3-fluoro-5-methoxy-4-pyridyl)ethynyl]pyrrolo[2,3-d]pyrimidine]

IC50 [3]: 88 nM
Compound: CCS(=O)(=O)c1cc(N2CC[C@@H](O)C2)cc(F)c1C#Cc1cn([C@@H]2O[C@H](CNS(N)(=O)=O)[C@@H](O)[C@H]2O)c2ncnc(N)c12 [Reference Example 72, 4-Amino-7-[(2R,3R,4S,5R)-3,4-dihydroxy-5-[(sulfamoylamino)methyl]tetrahydrofuran-2-yl]-5-[2-[2-ethylsulfonyl-6-fluoro-4-[(3R)-3-hydroxypyrrolidin-1-yl]phenyl]ethynyl]pyrrolo[2,3-d]pyrimidine]

IC50 [3]: 71 nM
Compound: Nc1ncnc2c1c(C#Cc1c(F)cccc1Cl)cn2[C@@H]1O[C@H](CNS(N)(=O)=O)[C@@H](O)[C@H]1O [Reference Example 73, 4-Amino-5-[2-(2-chloro-6-fluoro-phenyl)ethynyl]-7-[(2R,3R,4S,5R)-3,4-dihydroxy-5-[(sulfamoylamino)methyl]tetrahydrofuran-2-yl]pyrrolo[2,3-d]pyrimidine]

IC50 [3]: 56 nM
Compound: Nc1ncnc2c1c(C#Cc1cccc3c1S(=O)(=O)CCC3)cn2[C@@H]1O[C@H](CNS(N)(=O)=O)[C@@H](O)[C@H]1O [Reference Example 83, 4-Amino-7-[(2R,3R,4S,5R)-3,4-dihydroxy-5-[(sulfamoylamino)methyl]tetrahydrofuran-2-yl]-5-[2-(1,1-dioxo-3,4-dihydro-2H-thiochromen-8-yl)ethynyl]pyrrolo[2,3-d]pyrimidine]

IC50 [3]: 230 nM
Compound: Nc1ncnc2c1c(C#Cc1c(F)cccc1S(N)(=O)=O)cn2[C@@H]1O[C@H](CNS(N)(=O)=O)[C@@H](O)[C@H]1O [Reference Example 84, 2-[2-[4-Amino-7-[(2R,3R,4S,5R)-3,4-dihydroxy-5-[(sulfamoylamino)methyl]tetrahydrofuran-2-yl]pyrrolo[2,3-d]pyrimidin-5-yl]ethynyl]-3-fluoro-benzenesulfonamide]

IC50 [3]: 38 nM
Compound: N#Cc1cccc(F)c1C#Cc1cn([C@@H]2O[C@H](CNS(N)(=O)=O)[C@@H](O)[C@H]2O)c2ncnc(N)c12 [Reference Example 85, 4-Amino-5-[2-(2-cyano-6-fluoro-phenyl)ethynyl]-7-[(2R,3R,4S,5R)-3,4-dihydroxy-5-[(sulfamoylamino)methyl]tetrahydrofuran-2-yl]pyrrolo[2,3-d]pyrimidine]

IC50 [3]: 5.5 nM
Compound: Nc1ncnc2c1c(C#Cc1c(F)cccc1OCC1CC1)cn2[C@@H]1O[C@H](CNS(N)(=O)=O)[C@@H](O)[C@H]1O [Reference Example 86, 4-Amino-5-[2-[2-(cyclopropylmethoxy)-6-fluoro-phenyl]ethynyl]-7-[(2R,3R,4S,5R)-3,4-dihydroxy-5-[(sulfamoylamino)methyl]tetrahydrofuran-2-yl]pyrrolo[2,3-d]pyrimidine]

IC50 [3]: 7.3 nM
Compound: CSc1cccc(F)c1C#Cc1cn([C@@H]2C[C@H](CNS(N)(=O)=O)[C@@H](O)[C@H]2O)c2ncnc(N)c12 [Reference Example 98, 4-Amino-7-[(1R,2S,3R,4R)-2,3-dihydroxy-4-[(sulfamoylamino)methyl]cyclopentyl]-5-[2-(2-fluoro-6-methylsulfanyl-phenyl)ethynyl]pyrrolo[2,3-d]pyrimidine]

IC50 [3]: 35 nM
Compound: Nc1ncnc2c1c(C#Cc1c(F)cc(N3CC[C@@H](O)C3)cc1F)cn2[C@@H]1C[C@H](CNS(N)(=O)=O)[C@@H](O)[C@H]1O [Reference Example 120, 4-Amino-5-[2-[2,6-difluoro-4-[(3R)-3-hydroxypyrrolidin-1-yl]phenyl]ethynyl]-7-[(1R,2S,3R,4R)-2,3-dihydroxy-4-[(sulfamoylamino)methyl]cyclopentyl]pyrrolo[2,3-d]pyrimidine]

IC50 [3]: 97 nM
Compound: Nc1ncnc2c1c(C#Cc1cccc3c1S(=O)(=O)CCC3)cn2[C@@H]1C[C@H](CNS(N)(=O)=O)[C@@H](O)[C@H]1O [Reference Example 123, 4-Amino-7-[(1R,2S,3R,4R)-2,3-dihydroxy-4-[(sulfamoylamino)methyl]cyclopentyl]-5-[2-(1,1-dioxo-3,4-dihydro-2H-thiochromen-8-yl)ethynyl]pyrrolo[2,3-d]pyrimidine]

IC50 Ratio [1, 5]: 0.5
Compound: O=c1[nH]c(=O)n([C@H]2C[C@H](O)[C@@H](CO)O2)cc1C(F)(F)F [Trifluridine, trifluridine]
CI ([1]; A431, Reference Example Compound 55:other compound 1:0.33, at ED50): 1.06
CI ([1]; A431, Reference Example Compound 55:other compound 1:1, at ED50): 0.74
Comprehensive Evaluation [1, 6]: Additive (0.9-1.10)

IC50 Ratio ([2]; HL-60, IC50 of Reference Example Compound 55 : IC50 of other compound = 1:value): 14
Compound: CC[C@@H]1C(=O)N(C)c2cnc(Nc3ccc(C(=O)N[C@H]4CC[C@H](N5CCN(CC6CC6)CC5)CC4)cc3OC)nc2N1C(C)C [Volasertib, volasertib]
CI ([2]; HL-60, Reference Example Compound 55:other compound 1:11, at ED50): 0.95
CI ([2]; HL-60, Reference Example Compound 55:other compound 1:33, at ED50): 0.82
Comprehensive Evaluation ([2]; HL-60): Additive (0.9-1.10)

Compound: AZD5363
CI [2]: 0.33 and 0.38
IC50 Ratio [2]: 67
